These results are taken from patent publication US12384753B2, “17-beta-hydroxysteroid dehydrogenase type 13 inhibitors and methods of use thereof” (Enanta Pharmaceuticals, Inc., priority 2021, dated 2025).

Sequence of Recombinant human HSD17B13 (Q7Z5P4 20-300): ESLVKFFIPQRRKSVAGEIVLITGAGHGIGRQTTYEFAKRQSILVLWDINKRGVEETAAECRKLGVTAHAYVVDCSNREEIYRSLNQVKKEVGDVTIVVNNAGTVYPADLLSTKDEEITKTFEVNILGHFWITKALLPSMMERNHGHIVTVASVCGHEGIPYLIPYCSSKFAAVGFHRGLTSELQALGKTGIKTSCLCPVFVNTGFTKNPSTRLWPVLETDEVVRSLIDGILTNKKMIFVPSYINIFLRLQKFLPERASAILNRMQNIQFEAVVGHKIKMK

This assay concerns the target Recombinant human HSD17B13 (Homo sapiens (Human), UniProt Q7Z5P4). As to the kind of experiment: HSD17B13 rapid-fire mass spectrometry assay (RF/MS assay). The format is biochemical. The following applies: inhibition of HSD17B13; LTB4 10 μM, NAD+ 0.5 mM, RT 3 h; IC50 ranges A-E. An excerpt:
HSD17B13 rapid-fire mass spectrometry assay (RF/MS assay). Recombinant human HSD17B13 was expressed and purified from sf9 cells at Charles River Labs (Saffron Walden, UK). Leukotriene B4 (Catalog #71160-24-2) and 12-oxoleukotriene B4 (Catalog #20140) were purchased from Cayman Chemicals (Ann Arbor, Michigan.). NAD+ (Catalog #N8285), BSA (Catalog #A7030), DMSO (Catalog #D2650), and Tween-20 (Catalog #11332465001) were purchased from Sigma (St. Louis, MO). Formic acid (Catalog #28905) was from ThermoFisher Scientific and 384 deep well PP microplates (Catalog #784261) were from Greiner Bio-One. In a typical IC50 assay performed in a 384w PP microplate, test compounds (0-100 μM) were incubated with HSD17B13 (80 nM), LTB4 (10 μM), and NAD^+ (0.5 mM) in 10 μL assay buffer (20 mM Tris (pH 7.5), BSA (0.005%), and Tween-20 (0.01%)) at RT for 3 h. The assays were quenched by adding 20 μL of 0.15% aqueous formic acid and the plates were frozen at −80° C. RF/MS analysis was performed at PureHoney Technologies (Billerica, MA) on a RapidFire RF300 system (Agilent Technologies, Inc.) coupled to an API 4000 triple quadrupole mass spectrometer (Sciex) equipped with Agilent RapidFire cartridge type A (C4). The mobile phase was 0.09% formic acid and 0.01% trifluoracetic acid in water (Buffer A) and 0.09% formic acid and 0.01% trifluoracetic acid in 80% aqueous acetonitrile (Buffer B). The RapidFire method conditions were the following: 250 ms aspirate, 3000 ms load/desalt, 4000 ms elute, and 500 ms re-equilibrate. RF-MS/MS was performed in negative polarity (−4500 V), the source temperature was 650° C., and gas 1 and gas 2 settings for nitrogen were set to 50. The curtain gas and collision gas were also nitrogen and were set to 20 and 12, respectively. Leukotriene B4 (335.3) and 12-oxoLeukotriene B4 (333.3) SRM transitions were optimized with Discovery Quant software and extracted ion counts for these analytes were determined.
Data Analysis. HSD17B13 enzyme activity was measured as percent conversion of extracted ion counts and normalized to high and low controls to determine percent residual activity at various concentrations of test compounds. Data were fitted to normalized activity (variable slope) versus concentration fit in GraphPad Prism 7 to determine IC50. All experiments were run in duplicates.
By using above method, the inhibition of HSD17B13 was evaluated for the compounds of Formula (I). IC50 ranges are as follows: A=IC50<0.100 μM; B=0.100 μM<IC50<0.500 μM; C=0.500 μM<IC50<1 μM; D=1 μM<IC50<100 μM; E=IC50>100 μM
Take `COc1cc(C(=O)O)ccc1NS(=O)(=O)c1ccc(-c2ccc(F)cc2)cc1` [Example 316]: the half-inhibitory concentration (IC50) was in the range of 100 to 500 nM.
Consider `COc1nc(C(=O)O)cnc1NS(=O)(=O)c1cnc(-c2ccc(F)cc2)s1` [Example 84], for which the IC50 fell in the range of 1000 to 100000 nM.
Take `CNS(=O)(=O)c1cc(OC)c(NS(=O)(=O)c2cnc(-c3ccc(F)cc3)s2)cc1C` [Example 121]: the IC50 was 1000 to 100000 nM.
As for `CC[C@H]1CC[C@H](c2ccc(-c3nc(S(=O)(=O)Nc4cc5c(cc4OC)C(=O)NC5)cs3)cc2)CC1` [Example 574], the figure is 1000 to 100000 nM.
As to `COc1cc(C(=O)O)ccc1NS(=O)(=O)c1ccc(-c2ccc(F)cc2)cc1F` [Example 333], the half-inhibitory concentration (IC50) was in the range of 100 to 500 nM.
Turning to `COc1cc(C(=O)O)c(F)cc1NS(=O)(=O)c1cnc(-c2ccc([C@H]3CC[C@H](C(C)C)CC3)cc2)s1` [Example 769], the IC50 is 100 to 500 nM.
For the compound `COc1cc(C(=O)O)c(F)cc1NS(=O)(=O)c1cnc(-c2ccc([C@H]3CC[C@H](C)CC3)cc2)s1` [Example 627], the IC50 was < 100 nM.
As for `COc1cc(C(=O)O)ccc1NS(=O)(=O)c1csc(N2CCN(c3ccc(C)cc3)CC2)n1` [Example 278], the figure is 1000 to 100000 nM; as for `O=C(O)c1ccc2nc(NS(=O)(=O)c3cnc(-c4ccc(F)cc4)s3)oc2c1` [Example 93], 1000 to 100000 nM.
On to `CC[C@H]1CC[C@H](c2ccc(-c3cnc(S(=O)(=O)Nc4cc(F)c(C(=O)O)cc4OC)s3)cc2)CC1` [Example 615], for which the IC50 lay in the range of 100 to 500 nM.
On to `COc1ccc(-c2nc(S(=O)(=O)Nc3ccc(C(=O)O)cc3OC)cs2)cc1` [Example 99], for which the IC50 was in the range of 100 to 500 nM.
As to `COc1cc(C(=O)O)c(F)cc1NS(=O)(=O)c1csc(-c2ccc([C@H]3CC[C@@H](C(F)(F)F)CC3)c(F)c2C)n1` [Example 602], the IC50 was < 100 nM.
Under `COc1cc(C(=O)O)ccc1NS(=O)(=O)c1csc(N2CCC(c3ccccn3)CC2)n1` [Example 262] stands 1000 to 100000 nM.
For the compound `COc1cc(C(=O)O)c(F)cc1NS(=O)(=O)c1coc(-c2ccc(C3CCCCC3)cc2)n1` [Example 497], the concentration for half-maximal inhibition (IC50) was in the range of 100 to 500 nM.
For the compound `COc1cc(C(=O)O)ccc1NS(=O)(=O)c1cncc(-c2ccc(C3CCCCC3)cc2)c1` [Example 433, 4-((5-(4-cyclohexylphenyl)pyridine)-3-sulfonamido)-3-methoxybenzoic acid], the IC50 lay within 500 to 1000 nM.
Under `COc1cc(C(=O)O)c(F)cc1NS(=O)(=O)c1csc(-c2ccc(C3CCC(C)(C)CC3)cc2C2CC2)n1` [Example 547] stands 100 to 500 nM.
As for `COc1cc(C(=O)O)ccc1NS(=O)(=O)c1coc(-c2ccc([C@H]3CC[C@@H](C(F)(F)F)CC3)cc2)n1` [Example 609], the figure is < 100 nM; as for `COc1cc(C(=O)O)ccc1NS(=O)(=O)c1csc(N2CCCC(C(C)c3ccccc3)C2)n1` (stereo not drawn) [Example 295], 1000 to 100000 nM.
As for `COc1cc(C(=O)O)c(F)cc1NS(=O)(=O)c1csc(-c2ccc(C3CCC(C)(C)CC3)c(C)c2)n1` [Example 528], the figure is 100 to 500 nM; as for `CCCCC[C@H]1CC[C@H](c2ccc(-c3cccc(S(=O)(=O)Nc4ccc(C(=O)O)cc4OC)c3F)cc2)CC1` [Example 470], 100 to 500 nM; as for `CCC[C@H]1CC[C@H](C2CC=C(c3nc(S(=O)(=O)Nc4ccc(C(=O)O)cc4OC)cs3)CC2)CC1` (stereo partly drawn) [Example 379], 100 to 500 nM.
As to `COc1cc(C(=O)O)c(F)cc1NS(=O)(=O)c1csc(-c2ccc(-c3ccc(C(F)(F)C(F)(F)F)cc3)cc2)n1` [Example 735], the half-maximal inhibitory concentration (IC50) lay in the range of 100 to 500 nM.
Under `COc1cc(C(=O)O)ccc1NS(=O)(=O)c1csc(-c2ccc(C3CCCCC3)cc2)n1` [Example 281, 4-((2-(4-cyclohexylphenyl)thiazole)-4-sulfonamido)-3-methoxybenzoic acid] stands 100 to 500 nM; under `COc1cc(C(=O)O)c(F)cc1NS(=O)(=O)c1csc(C#Cc2cccc(C)c2)n1` [Example 236], < 100 nM.
Under `COc1cc(C(=O)O)c(F)cc1NS(=O)(=O)c1csc(-c2ccc(-c3cccs3)cc2)n1` [Example 645] stands 100 to 500 nM; under `COc1cc(C(=O)O)ccc1NS(=O)(=O)c1csc(C#Cc2ccccc2C)n1` [Example 187], < 100 nM.
Take `COc1cc(C(=O)O)ccc1NS(=O)(=O)c1csc(-c2ccc(C3CCC(F)(F)CC3)cc2)n1` [Example 371]: the IC50 was 100 to 500 nM.
For `COc1cc(C(=O)O)ccc1NS(=O)(=O)c1csc(N2CCN(c3ccccc3)CC2)n1` [Example 257], the IC50 was 500 to 1000 nM.
On to `COc1cc(C(=O)O)ccc1NS(=O)(=O)c1csc(-c2ccc(C)cc2)n1` [Example 97], for which the IC50 lay in the range of 100 to 500 nM.
Under `COc1cc(C(=O)O)ccc1NS(=O)(=O)c1ccc(-c2ccc(C3CCC(C)(C)CC3)cc2)s1` [Example 428, 4-((5-(4-(4,4-dimethylcyclohexyl)phenyl)thiophene)-2-sulfonamido)-3-methoxybenzoic acid] stands 100 to 500 nM; under `COc1cc(C#Cc2nc(S(=O)(=O)Nc3ccc(C(=O)O)cc3OC)cs2)ccn1` [Example 246], 500 to 1000 nM.
For the compound `COc1cc(C(=O)O)c(F)cc1NS(=O)(=O)c1csc(-c2ccc(-c3ccc(C(F)(F)F)cc3)cc2)n1` [Example 740], the IC50 was < 100 nM.
For `COc1cc(C(=O)O)c(F)cc1N(C)S(=O)(=O)c1csc(-c2ccc(C3CCC(C)(C)CC3)cc2C(F)(F)F)n1` [Example 683], the concentration for half-maximal inhibition (IC50) was in the range of 100 to 500 nM.
As to `COc1cc(C(=O)O)ccc1NS(=O)(=O)c1csc(-c2ccccn2)n1` [Example 147], the IC50 was in the range of 1000 to 100000 nM.
As for `O=C(O)c1ccc(NS(=O)(=O)c2ccc(Oc3ccc(S(=O)(=O)Nc4ccc(C(=O)O)cc4O)cc3)cc2)c(O)c1` [Example 172], the figure is 100 to 500 nM; as for `COc1cc(C(=O)O)c(F)cc1NS(=O)(=O)c1csc(-c2ccc(C3=CCC(C)(C)CC3)cc2C(F)F)n1` [Example 590], < 100 nM.
In the case of `COc1cc(C(=O)O)ccc1NS(=O)(=O)c1ccc2occc2c1` [Example 139], the IC50 lay within 1000 to 100000 nM.
Under `O=S(=O)(Nc1ccc(O)c(Cl)c1)c1cnc(-c2ccc(F)cc2)s1` [Example 114] stands 1000 to 100000 nM.
As for `O=C(O)c1ccc(NS(=O)(=O)c2cnc(-c3ccc(F)cc3)s2)c(F)c1` [Example 28], the IC50 lay within 100 to 500 nM.
As for `COc1cc(C(=O)O)ccc1NS(=O)(=O)c1csc(C#Cc2ccccc2OC(F)(F)F)n1` [Example 238], the IC50 is < 100 nM.
On to `CCC1CCC(c2ccc(-c3nc(S(=O)(=O)Nc4cc(F)c(C(=O)O)cc4OC)cs3)c(C(F)(F)F)c2)CC1` (stereo not drawn) [Example 786], for which the IC50 was 100 to 500 nM.
As to `CCC[C@H]1CC[C@H](C2CC=C(c3nc(S(=O)(=O)Nc4ccc(C(=O)O)cc4OC)cs3)CC2)CC1` (stereo partly drawn) [Example 373], the IC50 lay in the range of 100 to 500 nM.
As for `COc1cc(C(=O)O)ccc1NS(=O)(=O)c1csc(N2CCN(C(=O)OCC3CCCCC3)CC2)n1` [Example 307, 4-((2-(4-((cyclohexylmethoxy)carbonyl)piperazin-1-yl)thiazole)-4-sulfonamido)-3-methoxybenzoic acid], the IC50 fell in the range of 500 to 1000 nM.
With `COc1cc(C(=O)O)c(F)cc1NS(=O)(=O)c1csc(C#Cc2ccc(C(C)(C)C)cc2)n1` [Example 240], the IC50 is < 100 nM.
Under `O=C(O)Cc1ccc(CNS(=O)(=O)c2cnc(-c3ccc(F)cc3)s2)cc1` [Example 30] stands > 100000 nM; under `COc1cc(C(=O)O)c(F)cc1NS(=O)(=O)c1cnc(-c2ccc([C@H]3CC[C@H](C(F)(F)F)CC3)cc2)s1` [Example 725], < 100 nM.
Under `COc1cc(C(=O)O)c(F)cc1NS(=O)(=O)c1csc(-c2ccc(C3CC4CCC3CC4)cc2)n1` (stereo not drawn) [Example 550] stands 100 to 500 nM.
For the compound `COc1cc(C(=O)O)ccc1NS(=O)(=O)c1csc(-c2ccccc2O)n1` [Example 142], the IC50 lay in the range of 500 to 1000 nM.
Under `COc1cc(C(=O)O)ccc1NS(=O)(=O)c1csc(N2CC=C(c3ccccc3)C2)n1` [Example 268] stands 100 to 500 nM; under `COc1cc(C(=O)O)c(F)cc1NS(=O)(=O)c1csc(-c2ccc(C3=CCC(C(C)C)CC3)cc2)n1` (stereo not drawn) [Example 774], < 100 nM.
In the case of `COc1cc(C(=O)O)ccc1NS(=O)(=O)c1csc(C#Cc2cccnc2)n1` [Example 215], the IC50 was 100 to 500 nM.

For orientation: IC50 means the point on the concentration scale where inhibition reaches its midpoint.
